# Columns and labels:
# laccase enzyme = test: Colorimetric assay with a syringaldazine substrate for residual laccase enzyme activity; type: biochemical, Psilocybe cubensis; settings: relative to the water control
# Source text: The denaturation of relevant laccase enzymes may be assessed, for example, by performing a colorimetric assay with a laccase enzyme substrate such as syringaldazine or 2,2′-azino-bis(3-ethylbenzothiazoline-6-sulfonate) (ABTS). Syringaldazine comprises an aromatic structure with pendant hydroxyl groups, which is chemically similar to the indole of a hydroxytryptamine, and ABTS comprises a benzothiazoline, which is chemically similar to the indole of tryptamines generally. Colorimetric assays performed with a syringaldazine or ABTS substrate therefore provide suitable methods to assess laccase activity that are relevant to this disclosure.
# (§1) 20 milliliters of 6 molar guanidinium chloride in distilled, deionized water and buffered to a pH of 6.0 with 50 millimolar phosphate buffer is added to each of three opaque 50-milliliter polypropylene centrifuge tubes. 20 milliliters of 8 molar urea in distilled, deionized water and buffered to a pH of 6.0 with 50 millimolar phosphate buffer is added to each of three opaque 50-milliliter polypropylene centrifuge tubes. 20 milliliters of 4 molar ammonium sulfate in distilled, deionized water and buffered to a pH of 6.0 with 50 millimolar MES buffer is added to each of three opaque 50-milliliter polypropylene centrifuge tubes. 20 milliliters of 2 percent sodium dodecyl sulfate (w/v) in distilled, deionized water and buffered to a pH of 6.0 with 50 millimolar phosphate buffer is added to each of three opaque 50-milliliter polypropylene centrifuge tubes. 20 milliliters of 1 percent Triton X-100 (v/v) in distilled, deionized water and buffered to a pH of 6.0 with 50 millimolar phosphate buffer is added to each of three opaque 50-milliliter polypropylene centrifuge tubes. 20 milliliters of 2 percent octyl glucoside (w/v) in distilled, deionized water and buffered to a pH of 6.0 with 50 millimolar phosphate buffer is added to each of three opaque 50-milliliter polypropylene centrifuge tubes. 20 milliliters of distilled, deionized water is buffered to a pH of 6.0 with 50 millimolar phosphate buffer and added to each of three opaque 50-milliliter polypropylene centrifuge tubes. Each of the centrifuge tubes is placed on ice.
# (§2) The stipes of three freshly-harvested Psilocybe cubensis fruiting bodies are each cut into seven sections of approximately 1 gram each, weighed, and immediately placed into one of the polypropylene tubes such that a section of each stipe is placed in each of the guanidinium, urea, ammonium sulfate, sodium dodecyl sulfate, Triton X-100, and octyl glucoside solutions as well as the water control. Each of the samples is homogenized and then sonicated within the polypropylene tubes. The polypropylene tubes are then loaded onto an orbital shaker in a cold room at 4 degrees Celsius and mixed at 450 revolutions per minute for four hours. After mixing, the samples are placed on ice.
# (§3) The samples are centrifuged, and the supernatants are analyzed by HPLC as described in Example 1. The molecular weights of the analytes are determined by electrospray ionization mass spectroscopy (ESI-MS) operating in positive ion mode. The supernatants are also used for a colorimetric assay with a para-nitrophenyl phosphate substrate to identify residual phosphatase enzyme activity and for a colorimetric assay with a syringaldazine substrate to identify any residual laccase enzyme activity.
# phosphatase enzyme = test: Colorimetric assay with a para-nitrophenyl phosphate substrate for residual phosphatase enzyme activity; type: biochemical, Psilocybe cubensis; settings: relative to the water control
# Source text: The denaturation of relevant phosphatase enzymes may be assessed, for example, by performing a colorimetric assay with a para-nitrophenyl phosphate substrate. Para-nitrophenyl phosphate comprises a phosphorylated aromatic, which is chemically similar to the phosphorylated indole of a phosphoryloxytryptamine. Colorimetric assays performed with a para-nitrophenyl phosphate substrate therefore provide suitable methods to assess […] that are relevant to this disclosure.
# as §1, §2, §3
# [1] = Spontaneous dephosphorylation of phosphoryloxytryptamines in 100 millimolar phosphate buffers, 85 degrees Celsius, one hour, HPLC at 220 nanometers
# [2] = cited from earlier work
# [3] = cited from earlier work; remark: listed apart in the source
# [4] = pH of 3.0 relative to pH of 2.0
# [5] = pH of 6.0 relative to pH of 7.0
# [6] = pH of 2.0 relative to pH of 3.0
# [7] = pH of 7.0 relative to pH of 6.0
compound,measurement,setting,value
"Cl.N=C(N)N [guanidinium, guanidinium chloride]",laccase enzyme activity in the colorimetric assay,laccase enzyme,significantly less laccase enzyme activity
same,phosphatase enzyme activity in the colorimetric assay,phosphatase enzyme,significantly less phosphatase enzyme activity
"CCCCCCCCO[C@@H]1O[C@H](CO)[C@@H](O)[C@H](O)[C@H]1O [octyl glucoside, octyl β-D-glucopyranoside]",laccase enzyme activity in the colorimetric assay,laccase enzyme,significantly less laccase enzyme activity
same,phosphatase enzyme activity in the colorimetric assay,phosphatase enzyme,significantly less phosphatase enzyme activity
"NCCc1c[nH]c2cccc(OP(=O)(O)O)c12 [norbaeocystin, 2-(4-phosphonooxy-1H-indol-3-yl)ethylazanium]",absorbance detected for the phosphoryloxytryptamine,[1]; [4],Greater absorbance
same,absorbance detected for the phosphoryloxytryptamine,[1]; [5],Greater absorbance
"CNCCc1c[nH]c2cccc(OP(=O)(O)O)c12 [baeocystin, [2-(4-phosphonooxy-1H-indol-3-yl)ethyl]-methylazanium]",absorbance detected for the phosphoryloxytryptamine,[1]; [4],Greater absorbance
same,absorbance detected for the phosphoryloxytryptamine,[1]; [5],Greater absorbance
"C[N+](C)(C)CCc1c[nH]c2cccc(OP(=O)(O)O)c12 [aeruginascin, [2-(4-phosphonooxy-1H-indol-3-yl)ethyl]-trimethylazanium]",absorbance detected for the phosphoryloxytryptamine,[1]; [4],Greater absorbance
same,absorbance detected for the phosphoryloxytryptamine,[1]; [5],Greater absorbance
OCCc1c[nH]c2ccccc12 [tryptophol],solubility in water,[2],insoluble in water
"O=C(O)Cc1c[nH]c2ccccc12 [Indole-3-acetic acid, indole-3-acetic acid]",solubility in water,[2],insoluble in water
"NCCc1c[nH]c2cccc(O)c12 [4-HT, 3-(2-aminoethyl)-1H-indol-4-ol]",absorbance detected for the hydroxytryptamine (dephosphorylation product),[1]; [6],greater absorbance
same,absorbance detected for the hydroxytryptamine (dephosphorylation product),[1]; [7],greater absorbance
"polyethylene glycol 4-(2,4,4-trimethylpent-2-yl)phenyl ether [Triton X-100]",laccase enzyme activity in the colorimetric assay,laccase enzyme,significantly less laccase enzyme activity
same,phosphatase enzyme activity in the colorimetric assay,phosphatase enzyme,significantly less phosphatase enzyme activity
"C[N+](C)(C)CCc1c[nH]c2cccc(O)c12 [4-hydroxy-TMT, [2-(4-hydroxy-1H-indol-3-yl)ethyl]-trimethylazanium]",absorbance detected for the hydroxytryptamine (dephosphorylation product),[1]; [6],greater absorbance
same,absorbance detected for the hydroxytryptamine (dephosphorylation product),[1]; [7],greater absorbance
CCCCCCCCCCCCOS(=O)(=O)[O-].[Na+] [sodium dodecyl sulfate],laccase enzyme activity in the colorimetric assay,laccase enzyme,significantly less laccase enzyme activity
same,phosphatase enzyme activity in the colorimetric assay,phosphatase enzyme,significantly less phosphatase enzyme activity
Chitin,solubility in water,[2],insoluble in water
"CN(C)CCc1c[nH]c2cccc(O)c12 [psilocin, 3-[2-(dimethylamino)ethyl]-1H-indol-4-ol]",absorbance detected for the hydroxytryptamine (dephosphorylation product),[1]; [6],greater absorbance
same,absorbance detected for the hydroxytryptamine (dephosphorylation product),[1]; [7],greater absorbance
"CNCCc1c[nH]c2cccc(O)c12 [norpsilocin, 3-[2-(methylamino)ethyl]-1H-indol-4-ol]",absorbance detected for the hydroxytryptamine (dephosphorylation product),[1]; [6],greater absorbance
same,absorbance detected for the hydroxytryptamine (dephosphorylation product),[1]; [7],greater absorbance
CN(C)CCc1c[nH]c2cccc(OP(=O)(O)O)c12 [psilocybin],pKa of the azanium of psilocybin,[3]; conjugate acid of the amino,about 10.4
same,pKa of the dihydrogen phosphate of psilocybin (lowest pKa),[3]; first phosphate pKa,about 1.3
N.N.O=S(=O)(O)O [ammonium sulfate],laccase enzyme activity in the colorimetric assay,laccase enzyme,significantly less laccase enzyme activity
same,phosphatase enzyme activity in the colorimetric assay,phosphatase enzyme,significantly less phosphatase enzyme activity
NC(N)=O [urea],laccase enzyme activity in the colorimetric assay,laccase enzyme,significantly less laccase enzyme activity
same,phosphatase enzyme activity in the colorimetric assay,phosphatase enzyme,significantly less phosphatase enzyme activity

# — patent publication US12497637B1, “Stabilization of tryptamines by denaturing enzymes, optimizing ionization states, and controlling confounding variables” (Convergent Health Sciences LLC, priority 2025, dated 2025)
